The nature of assay [1]: Inhibition of TEL/KDR (unknown origin) transfected in mouse Ba/F3 cells assessed as reduction in cell viability incubated for 48 hrs by brightglo-luciferase reporter gene assay.
Assay [2] in a line: Inhibition of KIF5B-RET (unknown origin) transfected in mouse Ba/F3 cells assessed as reduction in cell viability incubated for 48 hrs by brightglo-luciferase reporter gene assay.
A short description of assay [3]: Inhibition of CCDC6/RET (unknown origin) transfected in human LC2/ad cells assessed as reduction in cell viability incubated for 6 days by CellTiter Glo assay.
Assay [4] is described as follows: Inhibition of BLK (unknown origin) transfected in mouse Ba/F3 cells assessed as reduction in cell viability incubated for 48 hrs by brightglo-luciferase reporter gene assay.
The nature of assay [5]: Inhibition of JAK2 (unknown origin) transfected in mouse Ba/F3 cells assessed as reduction in cell viability incubated for 48 hrs by brightglo-luciferase reporter gene assay.
The nature of assay [6]: Inhibition of MER (unknown origin) transfected in mouse Ba/F3 cells assessed as reduction in cell viability incubated for 48 hrs by brightglo-luciferase reporter gene assay.
Assay [7] in a line: Inhibition of PDGFRbeta (unknown origin) transfected in mouse Ba/F3 cells assessed as reduction in cell viability incubated for 48 hrs by brightglo-luciferase reporter gene assay.
The nature of assay [8]: Inhibition of ZAP70 (unknown origin) transfected in mouse Ba/F3 cells assessed as reduction in cell viability incubated for 48 hrs by brightglo-luciferase reporter gene assay.
Assay [9] can be described thus: Inhibition of PDGFRalpha (unknown origin) transfected in mouse Ba/F3 cells assessed as reduction in cell viability incubated for 48 hrs by brightglo-luciferase reporter gene assay.
Assay [10] can be described thus: Inhibition of TIE1 (unknown origin) transfected in mouse Ba/F3 cells assessed as reduction in cell viability incubated for 48 hrs by brightglo-luciferase reporter gene assay.
The nature of assay [11]: Inhibition of KIF5B-RET V804M mutant (unknown origin) transfected in mouse Ba/F3 cells assessed as reduction in cell viability incubated for 48 hrs by brightglo-luciferase reporter gene assay.
A short description of assay [12]: Inhibition of KDR (unknown origin) transfected in mouse Ba/F3 cells assessed as reduction in cell viability incubated for 48 hrs by brightglo-luciferase reporter gene assay.
A short description of assay [13]: Inhibition of FMS (unknown origin) transfected in mouse Ba/F3 cells assessed as reduction in cell viability incubated for 48 hrs by brightglo-luciferase reporter gene assay.
The nature of assay [14]: Inhibition of BMX (unknown origin) transfected in mouse Ba/F3 cells assessed as reduction in cell viability incubated for 48 hrs by brightglo-luciferase reporter gene assay.
Assay [15] is described as follows: Inhibition of INSR (unknown origin) transfected in mouse Ba/F3 cells assessed as reduction in cell viability incubated for 48 hrs by brightglo-luciferase reporter gene assay.
Assay [16] is described as follows: Inhibition of TRKB (unknown origin) transfected in mouse Ba/F3 cells assessed as reduction in cell viability incubated for 48 hrs by brightglo-luciferase reporter gene assay.
Assay [17] can be described thus: Inhibition of LCK (unknown origin) transfected in mouse Ba/F3 cells assessed as reduction in cell viability incubated for 48 hrs by brightglo-luciferase reporter gene assay.
Assay [18] is described as follows: Inhibition of TRKC (unknown origin) transfected in mouse Ba/F3 cells assessed as reduction in cell viability incubated for 48 hrs by brightglo-luciferase reporter gene assay.
Assay [19] in a line: Inhibition of TRKA (unknown origin) transfected in mouse Ba/F3 cells assessed as reduction in cell viability incubated for 48 hrs by brightglo-luciferase reporter gene assay.
Assay [20] is described as follows: Inhibition of MET (unknown origin) transfected in mouse Ba/F3 cells assessed as reduction in cell viability incubated for 48 hrs by brightglo-luciferase reporter gene assay.
Assay [21] can be described thus: Inhibition of TYRO3 (unknown origin) transfected in mouse Ba/F3 cells assessed as reduction in cell viability incubated for 48 hrs by brightglo-luciferase reporter gene assay.
Assay [22] is described as follows: Inhibition of IGF1R (unknown origin) transfected in mouse Ba/F3 cells assessed as reduction in cell viability incubated for 48 hrs by brightglo-luciferase reporter gene assay.
Assay [23] can be described thus: Inhibition of FLT1 (unknown origin) transfected in mouse Ba/F3 cells assessed as reduction in cell viability incubated for 48 hrs by brightglo-luciferase reporter gene assay.
Assay [24] can be described thus: Inhibition of FGFR3 (unknown origin) transfected in mouse Ba/F3 cells assessed as reduction in cell viability incubated for 48 hrs by brightglo-luciferase reporter gene assay.
Assay [25] can be described thus: Inhibition of FGR (unknown origin) transfected in mouse Ba/F3 cells assessed as reduction in cell viability incubated for 48 hrs by brightglo-luciferase reporter gene assay.
Assay [26] in a line: Inhibition of FGFR2 (unknown origin) transfected in mouse Ba/F3 cells assessed as reduction in cell viability incubated for 48 hrs by brightglo-luciferase reporter gene assay.
Assay [27] in a line: Inhibition of RET (unknown origin) transfected in mouse Ba/F3 cells assessed as reduction in cell viability incubated for 48 hrs by brightglo-luciferase reporter gene assay.
The nature of assay [28]: Inhibition of LYN (unknown origin) transfected in mouse Ba/F3 cells assessed as reduction in cell viability incubated for 48 hrs by brightglo-luciferase reporter gene assay.
Assay [29] can be described thus: Inhibition of ROS (unknown origin) transfected in mouse Ba/F3 cells assessed as reduction in cell viability incubated for 48 hrs by brightglo-luciferase reporter gene assay.
A short description of assay [30]: Inhibition of SRC (unknown origin) transfected in mouse Ba/F3 cells assessed as reduction in cell viability incubated for 48 hrs by brightglo-luciferase reporter gene assay.
Assay [31] in a line: Inhibition of FGFR4 (unknown origin) transfected in mouse Ba/F3 cells assessed as reduction in cell viability incubated for 48 hrs by brightglo-luciferase reporter gene assay.
A short description of assay [32]: Inhibition of FGFR1 (unknown origin) transfected in mouse Ba/F3 cells assessed as reduction in cell viability incubated for 48 hrs by brightglo-luciferase reporter gene assay.
A short description of assay [33]: Inhibition of FLT3 (unknown origin) transfected in mouse Ba/F3 cells assessed as reduction in cell viability incubated for 48 hrs by brightglo-luciferase reporter gene assay.
Assay [34] can be described thus: Inhibition of RON (unknown origin) transfected in mouse Ba/F3 cells assessed as reduction in cell viability incubated for 48 hrs by brightglo-luciferase reporter gene assay.
The nature of assay [35]: Inhibition of NPM/ALK (unknown origin) transfected in mouse Ba/F3 cells assessed as reduction in cell viability incubated for 48 hrs by brightglo-luciferase reporter gene assay.
Assay [36] is described as follows: Inhibition of SYK (unknown origin) transfected in mouse Ba/F3 cells assessed as reduction in cell viability incubated for 48 hrs by brightglo-luciferase reporter gene assay.
The nature of assay [37]: Inhibition of KIT (unknown origin) transfected in mouse Ba/F3 cells assessed as reduction in cell viability incubated for 48 hrs by brightglo-luciferase reporter gene assay.

Each structure is given as a SMILES string.

Consider `COc1ccc(-c2cnn3c(N)c(-c4ccccc4)c(NC4CC(C)(C)N(C)C(C)(C)C4)nc23)cc1OC`, for which the values for the IC50 in assay [1], in [2] and in assay [3] were 990 nM, 1.7 nM and 5.3 nM, respectively.

Take `COc1ccc(-c2cnn3c(N)c(-c4ccccc4)c(NC4CCN(C)CC4)nc23)cc1OC`: the IC50 in assay [1] worked out at 3100 nM; in [2] it was 31 nM; in assay [3] it was 56 nM.

Turning to `CN1C(C)(C)CC(Nc2nc3c(-c4ccc(C(=O)N5CCN(S(C)(=O)=O)CC5)cc4)cnn3c(N)c2-c2ccccc2)CC1(C)C`, the IC50 came out at 1100 nM in assay [1], 6.3 nM in assay [2] and 6.2 nM in [3].

As to `COc1ccc(-c2cnn3c(N)c(-c4ccccc4)c(OCCCN(C)C)nc23)cc1OC`, the IC50 in assay [1] is 3000 nM; in assay [2] it was 70 nM.

Turning to `CN1C(C)(C)CC(Nc2nc3c(-c4ccc(C(=O)N5C[C@@H]6C[C@H]5CO6)cc4)cnn3c(N)c2-c2ccccc2)CC1(C)C`, the IC50 is 1300 nM in assay [1], 5.4 nM in assay [2] and 16 nM in [3].

Regarding `COc1ccc(-c2cnn3c(N)c(-c4ccccc4)c(NCCCN(C)C)nc23)cc1OC`, the IC50 in assay [1] was greater than 7900 nM; in assay [2] it was 56 nM.

For the compound `COC(=O)N1CCN(C(=O)c2ccc(-c3cnn4c(N)c(-c5ccccc5)c(NC5CC(C)(C)N(C)C(C)(C)C5)nc34)cc2)CC1`, the IC50 in [1] stood at 890 nM; in assay [2], 3.3 nM; in assay [3], 15 nM.

As for `COc1ccc(-c2cnn3c(N)c(-c4ccccc4)c(OC4CCN(C)CC4)nc23)cc1OC`, the IC50 is 520 nM in assay [4]; greater than 1300 nM in assay [5]; 1400 nM in assay [1]; greater than 11000 nM in assay [6]; 100 nM in assay [7]; greater than 11000 nM in [8]. The IC50 was 93 nM in assay [9]; greater than 11000 nM in [10]; 1800 nM in [11]; greater than 11000 nM in assay [12]; 400 nM in [13]; greater than 11000 nM in [14]. For the same compound, the IC50 in assay [15] was greater than 11000 nM; in assay [16] it was greater than 11000 nM; in [17] it was 110 nM; in assay [18] it was greater than 11000 nM; in assay [19], greater than 11000 nM; in assay [20], greater than 11000 nM. In addition, the IC50 in [21] was greater than 11000 nM; in [22] it was greater than 11000 nM; in assay [23] it was greater than 11000 nM; in assay [2] it was 37 nM; in [3], 95 nM; in assay [24] it was greater than 9800 nM. Further, the IC50 in assay [25] was 98 nM; in [26] it was 3700 nM; in assay [27], 170 nM; in assay [28] it was 410 nM; in assay [29], greater than 11000 nM; in assay [30] it was 120 nM. Besides, the IC50 was greater than 11000 nM in assay [31]; greater than 5600 nM in assay [32]; 1700 nM in assay [33]; greater than 11000 nM in assay [34]; 8300 nM in [35]; 7600 nM in assay [36].

`COc1ccc(-c2cnn3c(N)c(-c4ccccc4)c(OC4CCNCC4)nc23)cc1OC`: the IC50 in assay [1] came to 3600 nM; in assay [2], 79 nM; in assay [3], 160 nM.

`COC(=O)Nc1ccc(-c2c(OC3CCN(C)CC3)nc3c(-c4ccc(OC)c(OC)c4)cnn3c2N)cc1`: the 50% inhibitory concentration (IC50) in [4] worked out at 230 nM; in assay [5] it was 84 nM; in [6], 86 nM; in assay [7], 22 nM; in assay [8] it was 9100 nM; in [9] it was 17 nM. In addition, the IC50 in assay [10] was greater than 10000 nM; in assay [11], 19 nM; in assay [12] it was 26 nM; in assay [13], 82 nM; in assay [14], greater than 7400 nM; in assay [15], greater than 9100 nM. Moreover, the IC50 in assay [16] was 2100 nM; in assay [17] it was 2400 nM; in [18], 1400 nM; in assay [19], 2800 nM; in assay [20], greater than 11000 nM; in assay [21] it was 3700 nM. Besides, the IC50 in assay [22] was greater than 7500 nM; in [23] it was 3000 nM; in assay [2] it was 6 nM; in assay [24], 430 nM; in [37], 20 nM; in assay [25], 440 nM. In addition, the IC50 in [26] came to 8 nM; in assay [27], 6 nM; in assay [28], 67 nM; in assay [29] it was 5500 nM; in assay [31], 35 nM; in [32], 10 nM. The IC50 stood at 3400 nM in [33], 6000 nM in [34], 1200 nM in [35] and 1400 nM in assay [36].

Values taken from BindingDB's records for doi:10.1021/acsmedchemlett.0c00015 (The Genomics Institute of The Novartis Research Foundation, 2020).
